Values quoted from earlier work as cited in US5140036A, “1,3,5-trisubstituted-1,2,4-triazole compounds for treatment of circulatory disorders” (priority 1990, dated 1992).

Assays:
[1] = tested on: angiotensin II at its receptors; conditions: commercially-available peptidic angiotensin II antagonists
[2] = tested on: angiotensin II; conditions: series of binding experiments, functional assays and in vivo tests

SMILES | residual agonist activity [1] | angiotensin II antagonist activity [2]
CNCC(=O)N[C@@H](CCCN=C(N)N)C(=O)N[C@H](C(=O)N[C@@H](Cc1ccc(O)cc1)C(=O)N[C@H](C(=O)N[C@@H](Cc1cnc[nH]1)C(=O)N1CCC[C@H]1C(=O)N[C@@H](C)C(=O)O)C(C)C)C(C)C [Saralasin] | significant residual agonist activity | 
CCCCc1nc(Cl)c(CC(=O)O)n1Cc1ccccc1Cl [2-n-butyl-4-chloro-1-(2-chlorobenzyl)imidazole-5-acetic acid] |  | specific competitive angiotensin II antagonist activity
CCCCc1nc(Cl)c(CC(=O)O)n1Cc1ccccc1[N+](=O)[O-] [2-butyl-4-chloro-1-(2-nitrobenzyl)imidazole-5-acetic acid] |  | specific competitive angiotensin II antagonist activity
